The values below come from ChEMBL document CHEMBL6078697, “Synthesis and Evaluation of 9-epi-Koshidacin B as Selective Inhibitor of Histone Deacetylase 1” (J Nat Prod, 2024).

SMILES strings stand for the structures.

The target in experiment [1] is T1, Histone deacetylase 1 (Homo sapiens, UniProt Q13547). The experiment can be described thus: Inhibition of HDAC1 (unknown origin) using RHKK(Ac)AMC as substrate.
The target of experiment [2] is T1, Histone deacetylase 1. The experiment can be described thus: Binding affinity to HDAC1 (unknown origin) assessed as inhibition constant.
The target of experiment [3] is T1, Histone deacetylase 1. The experiment is described as follows: Inhibition of HDAC1 (unknown origin).
The target in experiment [4] is T2, Protein deacetylase HDAC6 (Homo sapiens, UniProt Q9UBN7).
T2 sequence (Q9UBN7 whole entry): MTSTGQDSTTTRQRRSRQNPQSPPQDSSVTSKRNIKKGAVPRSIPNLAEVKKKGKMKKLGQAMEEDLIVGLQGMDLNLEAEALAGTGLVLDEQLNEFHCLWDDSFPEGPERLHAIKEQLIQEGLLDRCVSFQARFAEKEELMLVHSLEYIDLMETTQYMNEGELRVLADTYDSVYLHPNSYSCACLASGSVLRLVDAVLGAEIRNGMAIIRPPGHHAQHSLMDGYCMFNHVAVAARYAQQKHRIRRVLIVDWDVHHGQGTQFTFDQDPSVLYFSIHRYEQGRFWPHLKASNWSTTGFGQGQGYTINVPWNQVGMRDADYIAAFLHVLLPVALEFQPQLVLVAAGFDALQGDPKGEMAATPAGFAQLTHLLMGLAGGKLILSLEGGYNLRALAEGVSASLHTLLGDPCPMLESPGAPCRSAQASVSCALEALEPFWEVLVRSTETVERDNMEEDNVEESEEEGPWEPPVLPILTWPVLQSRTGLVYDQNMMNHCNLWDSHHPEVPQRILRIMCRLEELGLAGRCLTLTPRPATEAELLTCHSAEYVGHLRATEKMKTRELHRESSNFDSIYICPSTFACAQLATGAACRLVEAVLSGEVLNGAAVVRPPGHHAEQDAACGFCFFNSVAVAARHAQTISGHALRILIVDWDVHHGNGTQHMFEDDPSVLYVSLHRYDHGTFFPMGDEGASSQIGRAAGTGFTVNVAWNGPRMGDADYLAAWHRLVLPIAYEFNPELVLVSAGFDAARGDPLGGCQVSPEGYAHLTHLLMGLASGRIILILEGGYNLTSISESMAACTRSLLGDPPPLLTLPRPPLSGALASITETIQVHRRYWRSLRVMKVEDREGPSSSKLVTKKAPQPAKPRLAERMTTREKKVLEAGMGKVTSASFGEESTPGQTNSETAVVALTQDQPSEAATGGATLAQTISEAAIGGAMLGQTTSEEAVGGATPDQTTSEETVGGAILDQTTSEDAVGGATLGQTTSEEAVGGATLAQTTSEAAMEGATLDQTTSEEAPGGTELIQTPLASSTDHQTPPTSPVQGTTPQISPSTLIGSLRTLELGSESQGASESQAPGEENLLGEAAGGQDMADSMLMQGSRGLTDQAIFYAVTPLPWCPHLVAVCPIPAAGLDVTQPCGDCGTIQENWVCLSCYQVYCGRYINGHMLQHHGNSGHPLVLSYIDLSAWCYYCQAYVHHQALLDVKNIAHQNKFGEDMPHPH
The experiment is described as follows: Inhibition of HDAC6 (unknown origin) using RHKK(Ac)AMC as substrate.

A short description of experiment [5]: Selectivity ratio of IC50 for inhibition of HDAC4 (unknown origin) to IC50 for inhibition of HDAC1 (unknown origin).
Experiment [6] can be described thus: Selectivity ratio of IC50 for inhibition of HDAC6 (unknown origin) to IC50 for inhibition of HDAC1 (unknown origin).
Another experiment addresses Histone deacetylase 4 (Homo sapiens, UniProt P56524). The experiment can be described thus: Inhibition of HDAC4 (unknown origin) using trifluoroacetyl lysine as substrate.

T1 sequence (Q13547 whole entry): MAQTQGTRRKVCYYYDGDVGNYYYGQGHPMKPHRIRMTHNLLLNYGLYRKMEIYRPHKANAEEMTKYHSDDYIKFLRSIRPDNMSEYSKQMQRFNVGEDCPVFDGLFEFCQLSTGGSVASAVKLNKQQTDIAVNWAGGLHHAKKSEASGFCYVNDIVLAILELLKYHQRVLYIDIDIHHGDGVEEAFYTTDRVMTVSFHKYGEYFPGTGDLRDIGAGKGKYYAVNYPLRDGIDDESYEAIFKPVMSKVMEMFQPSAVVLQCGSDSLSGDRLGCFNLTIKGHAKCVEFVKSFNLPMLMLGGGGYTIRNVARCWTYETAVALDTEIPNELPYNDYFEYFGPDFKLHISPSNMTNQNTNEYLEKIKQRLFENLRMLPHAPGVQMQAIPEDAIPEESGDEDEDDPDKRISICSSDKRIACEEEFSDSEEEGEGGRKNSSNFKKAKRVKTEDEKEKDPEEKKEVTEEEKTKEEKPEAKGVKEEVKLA
Histone deacetylase 4, sequence (P56524 whole entry): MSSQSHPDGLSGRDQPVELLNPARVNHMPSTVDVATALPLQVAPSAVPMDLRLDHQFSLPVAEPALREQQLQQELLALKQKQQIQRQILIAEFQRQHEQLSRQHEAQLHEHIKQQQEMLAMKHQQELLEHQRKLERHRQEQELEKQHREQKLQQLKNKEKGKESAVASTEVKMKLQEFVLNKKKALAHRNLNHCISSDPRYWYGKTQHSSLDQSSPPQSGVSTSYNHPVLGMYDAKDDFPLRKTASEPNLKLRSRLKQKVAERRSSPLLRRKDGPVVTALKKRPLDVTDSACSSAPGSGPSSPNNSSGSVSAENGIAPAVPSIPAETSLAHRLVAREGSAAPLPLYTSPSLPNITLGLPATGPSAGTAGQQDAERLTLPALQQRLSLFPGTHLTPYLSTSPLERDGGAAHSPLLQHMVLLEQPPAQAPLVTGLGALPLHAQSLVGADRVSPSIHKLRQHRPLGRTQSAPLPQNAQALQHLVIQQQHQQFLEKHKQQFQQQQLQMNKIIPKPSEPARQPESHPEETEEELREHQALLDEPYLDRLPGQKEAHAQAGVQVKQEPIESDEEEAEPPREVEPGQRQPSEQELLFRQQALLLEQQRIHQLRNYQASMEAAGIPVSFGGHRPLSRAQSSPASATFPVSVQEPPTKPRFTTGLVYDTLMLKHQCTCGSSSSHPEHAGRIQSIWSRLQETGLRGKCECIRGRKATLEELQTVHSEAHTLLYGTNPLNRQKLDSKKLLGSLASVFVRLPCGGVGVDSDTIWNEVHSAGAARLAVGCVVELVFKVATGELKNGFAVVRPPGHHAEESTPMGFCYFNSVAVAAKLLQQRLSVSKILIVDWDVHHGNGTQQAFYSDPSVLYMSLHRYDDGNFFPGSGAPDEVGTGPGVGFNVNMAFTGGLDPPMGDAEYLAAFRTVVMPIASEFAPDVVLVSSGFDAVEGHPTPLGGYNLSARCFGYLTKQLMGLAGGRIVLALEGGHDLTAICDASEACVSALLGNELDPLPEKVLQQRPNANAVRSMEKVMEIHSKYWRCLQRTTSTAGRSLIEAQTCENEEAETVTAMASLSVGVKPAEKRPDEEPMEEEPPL

In general, IC50 refers to the midpoint of a concentration-inhibition curve. Lower therefore signals higher potency. With `C[C@H](O)C(=O)CCCCC[C@@H]1NC(=O)[C@H]2CCCN2C(=O)[C@H](Cc2ccccc2)NC(=O)C(C)(C)NC1=O`, at Histone deacetylase 1 [1], the IC50 came to 0.33 µM.

As usually defined, the Ki is the equilibrium dissociation constant of an inhibitor or competing ligand from its target. For the molecule `CC1(C)NC(=O)[C@H](CCCCCC(=O)[C@@H](O)CO)NC(=O)[C@H]2CCCN2C(=O)[C@H](Cc2ccccc2)NC1=O` (stereo in doubt; form 2), the Ki at Histone deacetylase 1 [2] came to 22.1 µM.

Consider `CC1(C)NC(=O)[C@H](CCCCCC(=O)[C@@H]2CO2)NC(=O)[C@H]2CCCN2C(=O)[C@H](Cc2ccccc2)NC1=O`, for which the IC50 was determined as 1.1 µM on Histone deacetylase 1 [3], 1.1 µM in experiment [4] and 0.00015 µM on Histone deacetylase 1 [1].

In turn, `CC[C@]1(C)NC(=O)[C@H](CCCCCC(=O)[C@@H](C)O)NC(=O)[C@H]2CCCN2C(=O)[C@H](Cc2ccc(O)cc2)NC1=O` gave an IC50 against Histone deacetylase 1 [3] of 0.0215 µM.

In the case of `CC1(C)NC(=O)[C@H](CCCCCC(=O)[C@H](O)CO)NC(=O)[C@H]2CCCN2C(=O)[C@H](Cc2ccccc2)NC1=O` (stereo in doubt; form 2), on Histone deacetylase 1 [2], the Ki turned out to be 15.8 µM.

In the case of `CC1(C)NC(=O)[C@H](CCCCCC(=O)[C@@H](O)CO)NC(=O)[C@H]2CCCN2C(=O)[C@H](Cc2ccccc2)NC1=O` (stereo in doubt; form 1), the Ki on Histone deacetylase 1 [2] was found to be 11.2 µM.

As to `CC1(C)NC(=O)[C@H](CCCCCC(=O)[C@H](O)CO)NC(=O)[C@H]2CCCN2C(=O)[C@H](Cc2ccccc2)NC1=O` (stereo in doubt; form 1), the Ki at Histone deacetylase 1 [2] is 5.65 µM.

As to `CC1(C)NC(=O)[C@H](CCCCCC(=O)[C@H](O)CO)NC(=O)[C@H]2CCCN2C(=O)[C@H](Cc2ccccc2)NC1=O` [listing 1 of 2 here], the Ratio IC50 in experiment [5] is 7000; in experiment [6], 2200.

Molecule `C[C@@H](O)C(=O)CCCCC[C@@H]1NC(=O)[C@H]2CCCN2C(=O)[C@H](Cc2ccccc2)NC(=O)C(C)(C)NC1=O` came in with a half-inhibitory concentration (IC50) on Histone deacetylase 1 [1] of 0.03 µM.

`CC1(C)NC(=O)[C@H](CCCCCC(=O)[C@H](O)CO)NC(=O)[C@H]2CCCN2C(=O)[C@H](Cc2ccccc2)NC1=O` [listing 2 of 2 here]: the IC50 worked out at 1000 µM against Histone deacetylase 4, 319 µM in experiment [4] and 0.145 µM on Histone deacetylase 1 [1].
